In PubChem BioAssay (NCI):
Where “and” joins values, the source holds several entries; their conditions need not be identical. Identical values can stand only once.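 All cell lines were grown in 96-well plates and treated with compound for 48 hours. GI50 marks 50% less growth. TGI denotes the concentration required for complete inhibition of growth.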

Assays:
Experiment in all cases: NCI-60 cell line screen, 48 h
A549 NSCLC = system: A549 NSCLC
ACHN renal = system: ACHN renal
BT-549 breast = system: BT-549 breast
HS 578T breast = system: HS 578T breast
HT29 colon = system: HT29 colon
MCF7 breast = system: MCF7 breast
NCI-H460 lung = system: NCI-H460 lung
PC-3 prostate = system: PC-3 prostate
TK-10 renal = system: TK-10 renal
U251 CNS = system: U251 CNS

SMILES	TGI (A549 NSCLC)	TGI (ACHN renal)	TGI (BT-549 breast) [µM]	TGI (HS 578T breast)	TGI (HT29 colon) [µM]	TGI (MCF7 breast) [µM]	TGI (NCI-H460 lung)	TGI (PC-3 prostate)	TGI (TK-10 renal) [µM]	TGI (U251 CNS)	GI50 (BT-549 breast)	GI50 (HS 578T breast)	GI50 (HT29 colon)	GI50 (MCF7 breast)	GI50 (PC-3 prostate)	GI50 (U251 CNS)	GI50 (ACHN renal) [nM]	GI50 (NCI-H460 lung) [nM]	GI50 (TK-10 renal) [µM]
CN(C)CCCn1c2ccccc2c2cnccc21	> 100 µM	> 100 µM	> 100	> 100 µM	> 100	> 100	67 µM	> 100 µM	84.9	> 100 µM									
C/C(=N\N=C(N)N)c1c(C(=O)OCCCCCCOC(=O)c2nc3sccn3c2/C(C)=N/N=C(N)N)nc2sccn12	> 100 µM	> 100 µM	> 100	> 100 µM	> 100	> 100	> 100 µM	> 100 µM	55.1	> 100 µM									
CC(=O)Oc1ccc2cc(Oc3ccc(Cl)cc3)c(=O)oc2c1	94 µM	> 100 µM	83.8	> 100 µM	> 100	> 100	> 100 µM	78.7 µM	> 100	> 100 µM									
COc1ccc(CNc2nc(NCc3ccc(OC)cc3)nc(NC3CCCCC3)n2)cc1	5.31 µM	> 100 µM	37.9	4.85 µM	> 100	0.533	7.78 µM	> 100 µM	4.11	> 100 µM									
O=C1CCC2(CC1)Cc1ccccc1C2O (stereo not drawn)	> 100 µM	> 100 µM	> 100	> 100 µM	> 100	> 100	> 100 µM	> 100 µM	> 100	> 100 µM									
O=C1C/C(=C\O)C(=O)c2ccccc2N1	> 100 µM	> 100 µM	> 100	> 100 µM	> 100	> 100	> 100 µM	> 100 µM	> 100	> 100 µM									
O=C1c2ccccc2S(=O)(=O)c2ccccc21	> 100 µM	> 100 µM	> 100	> 100 µM	> 100	> 100	> 100 µM	> 100 µM	> 100	> 100 µM									
CCOC(=O)/C=C1\Nc2ccccc2C12CCc1c([nH]c3ccccc13)C2C(=O)OCC (stereo not drawn)	> 100 µM	> 100 µM	> 100	> 100 µM	> 100	> 100	> 100 µM	> 100 µM	> 100	> 100 µM									
O=C1c2ccccc2NC2C(O)c3ccccc3N12 (stereo not drawn)	61.5 µM	> 100 µM	> 100	> 100 µM	> 100	> 100	55.7 µM	> 100 µM	> 100	> 100 µM									
O=[N+]([O-])c1ccc2nc3ccc([N+](=O)[O-])cn3c2c1	> 100 µM	> 100 µM	> 100	> 100 µM	> 100	> 100	> 100 µM	> 100 µM	> 100	> 100 µM									
CCCCCCCCCCCCCCCCP(=O)(O)OP(=O)(O)OCC1OC(n2ccc(N)nc2=O)C(O)C1O (stereo not drawn)	> 100 µM	> 100 µM and 37.1 µM	> 100	> 100 µM	> 100	> 100	> 100 µM	> 100 µM	> 100	> 100 µM and 38 µM	> 100 µM and 24.3 µM	83.2 µM and 29.2 µM	> 100 µM and 19.9 µM	> 100 µM and 11.4 µM	37.8 µM and 10.8 µM	43.1 µM and 13.5 µM			
Oc1ccc2ccccc2c1-c1nnc(CCCCCCCCc2nnc(-c3c(O)ccc4ccccc34)o2)o1	25 µM and 32.9 µM	25 µM and > 55.3 µM	> 100	25 µM and > 100 µM		> 37.2	25 µM and > 47.2 µM	22.4 µM and 50.6 µM	> 100	25 µM and > 63.8 µM		19.6 µM	0.36 µM		1.55 µM	17.2 µM	1280	715	> 25
COc1cn2c(cc1=O)COc1ccc(-c3ccccc3)cc1-2	99.5 µM	> 100 µM	> 82.9	> 100 µM	> 100	> 100	> 100 µM	> 100 µM	> 79.8	> 100 µM		43.6 µM							
CC1(C)OC[C@@H](/C=C\CCO[Si](c2ccccc2)(c2ccccc2)C(C)(C)C)N1C(=O)c1ccccc1	23.2 µM	> 100 µM	> 100	55.1 µM	17.3	24.4	17.3 µM	> 100 µM	> 100	45.5 µM									
O=C1c2cc(Cl)ccc2-n2c(noc2=O)C2CSCN12 (stereo not drawn)	> 100 µM	> 100 µM	> 100	> 100 µM	> 100	> 100	> 100 µM	> 100 µM	> 100	> 100 µM									
O=c1oc2ccccc2cc1-c1nc2ccc([N+](=O)[O-])cc2o1	> 100 µM	80.9 µM	> 100	> 100 µM	> 100	> 100	> 100 µM	> 100 µM	> 100	> 100 µM									
CC(=O)N(C(C)=O)n1c(Cc2ccc(Cl)cc2)nn(C(C)=O)c1=O	> 100 µM	> 100 µM	> 100	> 100 µM	> 100	> 100	> 100 µM	> 100 µM	> 100	> 100 µM									

SMILES	TGI (A549 NSCLC)	TGI (ACHN renal)	TGI (BT-549 breast) [µM]	TGI (HS 578T breast)	TGI (HT29 colon) [µM]	TGI (MCF7 breast) [µM]	TGI (NCI-H460 lung)	TGI (PC-3 prostate)	TGI (TK-10 renal) [µM]	TGI (U251 CNS)	GI50 (BT-549 breast)	GI50 (HS 578T breast)	GI50 (HT29 colon)	GI50 (MCF7 breast)	GI50 (PC-3 prostate)	GI50 (U251 CNS)	GI50 (ACHN renal) [nM]	GI50 (NCI-H460 lung) [nM]	GI50 (TK-10 renal) [µM]
O=C(Nc1cccc2nsnc12)c1cc2c(cc1Cl)Sc1nccn1S2(=O)=O	56.1 µM	35.9 µM	36.9	> 100 µM	7.67	3.4	5.98 µM	3.64 µM	16.3	17.6 µM									
CN(C)c1ccc(-c2nc(-c3cc4c(ccc5ccccc54)oc3=O)cs2)cc1	> 100 µM	> 100 µM	> 100	> 100 µM	> 100	> 100	> 100 µM	> 100 µM	> 100	> 100 µM									
O=C(c1ccccc1F)c1c(NCc2ccccc2)c(=O)c1=O	> 100 µM	> 100 µM	> 100	> 100 µM	> 100	> 100	> 100 µM	> 100 µM	> 100	> 100 µM									
Cc1ccc(S(=O)(=O)Nn2c(-c3ccccc3)c(C#N)c(-c3ccc([N+](=O)[O-])cc3)c(C#N)c2=O)cc1	> 100 µM	> 100 µM	> 100	> 100 µM	> 100	> 100	> 100 µM	> 100 µM	> 100	> 100 µM									
C=CCc1c(O)c2ccccc2[nH]c1=O	> 100 µM	> 100 µM	> 100	> 100 µM	> 100	> 100	> 100 µM	> 100 µM	> 100	> 100 µM									
C=C[C@]1(C)CC[C@]2(C)C(CC[C@@]3(C)C2C[C@H](O)[C@H](O)[C@@]3(C)O)C1 (stereo partly drawn)	> 100 µM	> 100 µM	> 100	> 100 µM	> 100	> 100	> 100 µM	> 100 µM	> 100	> 100 µM									
CC1CN=C(c2cccc(OCc3ccc(COc4cccc(C5=NCC(C)N5)c4)cc3)c2)N1 (stereo not drawn)	> 100 µM	> 100 µM	> 100	> 100 µM	> 100	> 100	78.5 µM	> 100 µM	> 100	> 100 µM									
CN(C)c1ccc(C(=NNC(=O)c2cc3ccccc3[nH]2)c2ccc(N(C)C)cc2)cc1	> 100 µM	24.9 µM	> 44.8	3.74 µM	9.93	> 51	> 100 µM	> 66.8 µM	30.1	14.5 µM									
CCOC(=O)c1cc(-c2ccc(OC)c(OC)c2)c[nH]1	> 10 µM	> 10 µM	> 10	> 10 µM	> 10	> 10	> 10 µM	> 10 µM	> 10	> 10 µM									
COc1ccc(/C=N/Nc2[nH]c(=S)nc3[nH]ncc23)cc1	> 100 µM	> 100 µM	> 100	> 100 µM	> 100	> 100	> 100 µM	> 100 µM	65.9	40.7 µM									
N#Cc1c(N)c(-c2ccc(Cl)cc2)c(F)c2ccccc12	> 100 µM	> 100 µM	> 100	> 100 µM	> 100	> 100	> 100 µM	> 100 µM	> 100	> 100 µM									
N#Cc1c(=O)c2cccnc2n2c1[nH]c1ccccc12	> 100 µM	> 100 µM	> 100	69.9 µM	> 100	> 100	> 100 µM	> 100 µM	> 100	> 100 µM									
Cc1[nH]c(=O)nc(N/N=C/c2ccc(Cl)c(Cl)c2)c1C(=O)Nc1ccc(Cl)c(Cl)c1	38.9 µM	> 53.1 µM	39.7	27.2 µM	> 46.5	57	> 49.6 µM	> 51.5 µM	28	18.5 µM									
CCOC(=O)c1c2c(n(C)c1-c1ccccc1)C(=O)C(C)=CC2=O	32.9 µM	20.7 µM	27.7	56.7 µM	35.1	6.01	47.8 µM	25.5 µM	22.1	22.8 µM									
CCOC(=O)CCC(NC(=O)OCc1ccccc1)C(=O)NNC(=O)OC(C)(C)C (stereo not drawn)	> 100 µM	> 100 µM	> 100	> 100 µM	> 100	> 100	> 100 µM	> 100 µM	> 100	> 100 µM									
COc1ccc(N2C(=O)C3c4[nH]c5ccc(C)cc5c4C4CCC(C(C)C)CC4C3C2=O)cc1 (stereo not drawn)	> 100 µM	> 100 µM	> 100	> 100 µM	> 100	> 100	> 100 µM	> 100 µM	> 100	> 100 µM									
